Measured values published in the kinase profiling compilation of Christmann-Franck et al. (2016).
Blank lines part the entries; values can stand above or below the compound they belong to.

What was measured:
Test in all cases: radiometric filter-binding kinase assay
[1] = target: MAPK12 (human) (UniProt P53778)
[2] = target: CHEK2 (human) (UniProt O96017)
[3] = tested on: SGK1 (human), O00141 [S422D]
[4] = target: HIPK2 (human) (UniProt Q9H2X6)
[5] = target: DYRK2 (human) (UniProt Q92630)
[6] = target: MYLK (human) (UniProt Q15746)
Chain of MYLK (human) (Q15746 whole entry, looked up): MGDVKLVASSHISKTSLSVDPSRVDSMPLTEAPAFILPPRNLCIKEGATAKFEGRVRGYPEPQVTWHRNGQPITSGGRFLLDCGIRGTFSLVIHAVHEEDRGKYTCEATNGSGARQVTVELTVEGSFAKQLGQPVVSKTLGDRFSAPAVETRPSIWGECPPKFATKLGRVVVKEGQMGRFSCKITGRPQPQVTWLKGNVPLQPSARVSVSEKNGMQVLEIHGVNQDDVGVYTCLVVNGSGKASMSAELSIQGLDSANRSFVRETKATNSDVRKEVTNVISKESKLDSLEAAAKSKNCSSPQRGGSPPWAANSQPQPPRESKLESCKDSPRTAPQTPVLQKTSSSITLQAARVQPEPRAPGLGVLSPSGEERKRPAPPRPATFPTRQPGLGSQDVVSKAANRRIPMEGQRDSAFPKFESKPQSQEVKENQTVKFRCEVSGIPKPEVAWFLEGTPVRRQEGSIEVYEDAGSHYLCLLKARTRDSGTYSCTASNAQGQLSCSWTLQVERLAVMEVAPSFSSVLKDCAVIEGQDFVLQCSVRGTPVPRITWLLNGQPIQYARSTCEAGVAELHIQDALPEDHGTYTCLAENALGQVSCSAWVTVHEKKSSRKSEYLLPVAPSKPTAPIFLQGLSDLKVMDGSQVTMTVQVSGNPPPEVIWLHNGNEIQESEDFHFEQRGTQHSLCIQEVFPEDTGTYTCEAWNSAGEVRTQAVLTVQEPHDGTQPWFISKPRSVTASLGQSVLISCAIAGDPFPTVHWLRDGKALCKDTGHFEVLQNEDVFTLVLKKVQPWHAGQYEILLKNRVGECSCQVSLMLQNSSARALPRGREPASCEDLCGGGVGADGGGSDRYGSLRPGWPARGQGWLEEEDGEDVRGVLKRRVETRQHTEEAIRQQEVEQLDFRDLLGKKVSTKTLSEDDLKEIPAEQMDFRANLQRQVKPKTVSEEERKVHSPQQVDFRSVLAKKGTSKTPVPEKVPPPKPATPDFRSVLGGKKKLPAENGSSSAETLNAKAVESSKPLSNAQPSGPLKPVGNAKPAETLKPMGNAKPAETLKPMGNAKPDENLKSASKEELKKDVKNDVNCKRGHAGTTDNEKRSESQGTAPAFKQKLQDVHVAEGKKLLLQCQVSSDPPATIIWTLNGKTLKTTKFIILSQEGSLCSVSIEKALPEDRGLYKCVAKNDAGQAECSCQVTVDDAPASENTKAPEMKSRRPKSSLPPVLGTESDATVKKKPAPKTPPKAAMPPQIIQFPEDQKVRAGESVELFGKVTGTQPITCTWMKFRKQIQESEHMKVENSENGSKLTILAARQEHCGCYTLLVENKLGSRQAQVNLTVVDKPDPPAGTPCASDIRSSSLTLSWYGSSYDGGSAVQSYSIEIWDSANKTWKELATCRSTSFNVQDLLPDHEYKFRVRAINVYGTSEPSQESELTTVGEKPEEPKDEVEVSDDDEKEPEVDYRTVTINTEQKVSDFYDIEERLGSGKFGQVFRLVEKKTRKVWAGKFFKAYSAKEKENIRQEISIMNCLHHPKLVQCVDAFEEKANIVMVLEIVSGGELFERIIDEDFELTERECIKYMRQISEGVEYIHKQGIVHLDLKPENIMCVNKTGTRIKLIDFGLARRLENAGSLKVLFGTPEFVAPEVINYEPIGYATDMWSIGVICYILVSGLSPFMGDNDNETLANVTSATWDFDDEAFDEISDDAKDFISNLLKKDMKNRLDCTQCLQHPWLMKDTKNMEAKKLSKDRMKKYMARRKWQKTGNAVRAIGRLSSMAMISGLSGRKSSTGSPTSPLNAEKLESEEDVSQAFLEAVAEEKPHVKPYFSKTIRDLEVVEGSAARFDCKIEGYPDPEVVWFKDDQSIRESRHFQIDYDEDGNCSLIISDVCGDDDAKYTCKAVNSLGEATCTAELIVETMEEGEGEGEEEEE

[7] = target: TTK (human) (UniProt P33981)
[8] = target: MAPK14 (human) (UniProt Q16539)
Chain of MAPK14 (human) (Q16539 whole entry, looked up): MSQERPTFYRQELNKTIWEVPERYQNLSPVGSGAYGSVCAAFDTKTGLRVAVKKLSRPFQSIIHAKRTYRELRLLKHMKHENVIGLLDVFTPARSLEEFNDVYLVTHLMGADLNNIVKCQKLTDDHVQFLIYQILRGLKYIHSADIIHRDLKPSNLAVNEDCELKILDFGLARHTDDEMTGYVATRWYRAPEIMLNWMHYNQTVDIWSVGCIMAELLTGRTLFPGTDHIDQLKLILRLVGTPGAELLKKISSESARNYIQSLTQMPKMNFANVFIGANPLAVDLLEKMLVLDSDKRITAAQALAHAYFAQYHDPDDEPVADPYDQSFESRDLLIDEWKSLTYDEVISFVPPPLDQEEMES

[9] = target: NEK2 (human) (UniProt P51955)
[10] = target: PRKCA (human) (UniProt P17252)
[11] = target: PIM3 (human) (UniProt Q86V86)
[12] = target: MARK2 (human) (UniProt Q7KZI7)
[13] = target: FLT1 (human) (UniProt P17948)
[14] = tested on: RPS6KB1 (human), P23443 [T412E]
[15] = target: IRAK4 (human) (UniProt Q9NWZ3)
[16] = target: STK3 (human) (UniProt Q13188)
Chain of STK3 (human) (Q13188 whole entry, looked up): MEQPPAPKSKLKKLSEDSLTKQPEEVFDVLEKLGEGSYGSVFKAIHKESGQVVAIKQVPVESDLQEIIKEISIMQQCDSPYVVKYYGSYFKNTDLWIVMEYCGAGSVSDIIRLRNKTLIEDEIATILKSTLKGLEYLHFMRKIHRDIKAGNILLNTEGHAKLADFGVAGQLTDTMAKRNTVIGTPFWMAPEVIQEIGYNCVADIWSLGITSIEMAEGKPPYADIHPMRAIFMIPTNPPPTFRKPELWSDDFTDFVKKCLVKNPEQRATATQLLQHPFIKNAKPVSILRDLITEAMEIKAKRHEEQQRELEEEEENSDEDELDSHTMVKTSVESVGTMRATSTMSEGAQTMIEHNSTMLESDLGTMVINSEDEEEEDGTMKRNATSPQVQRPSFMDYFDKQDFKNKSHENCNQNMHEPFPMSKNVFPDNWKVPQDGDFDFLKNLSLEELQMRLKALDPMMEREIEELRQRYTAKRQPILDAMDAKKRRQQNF

[17] = target: MELK (human) (UniProt Q14680)
[18] = target: EPHA2 (human) (UniProt P29317)
[19] = target: GCK (human) (UniProt Q12851)
[20] = target: DYRK3 (human) (UniProt O43781)
[21] = tested on: ROCK2 (rat); conditions: accession and sequence are those of the human protein
[22] = target: MAPKAPK5 (human) (UniProt Q8IW41)
[23] = target: RPS6KA1 KD1 KD2 (human) (UniProt Q15418)
[24] = target: PKN2 (human) (UniProt Q16513)
[25] = target: PIM1 (human) (UniProt P11309)
[26] = target: IKBKE (human) (UniProt Q14164)
[27] = target: MAPKAPK2 (human) (UniProt P49137)
Chain of MAPKAPK2 (human) (P49137 whole entry, looked up): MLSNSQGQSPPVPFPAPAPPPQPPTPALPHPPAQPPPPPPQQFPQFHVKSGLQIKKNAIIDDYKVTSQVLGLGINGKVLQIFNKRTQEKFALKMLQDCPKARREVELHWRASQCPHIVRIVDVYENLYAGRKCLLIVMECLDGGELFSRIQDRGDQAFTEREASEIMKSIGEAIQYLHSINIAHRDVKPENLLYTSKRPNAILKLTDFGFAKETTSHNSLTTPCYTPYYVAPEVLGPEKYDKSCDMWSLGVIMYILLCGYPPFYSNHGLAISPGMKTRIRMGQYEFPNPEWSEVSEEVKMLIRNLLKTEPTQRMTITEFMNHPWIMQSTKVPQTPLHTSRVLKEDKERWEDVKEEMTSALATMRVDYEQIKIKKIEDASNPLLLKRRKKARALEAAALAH

Chain of CHEK2 (human) (O96017 whole entry, looked up): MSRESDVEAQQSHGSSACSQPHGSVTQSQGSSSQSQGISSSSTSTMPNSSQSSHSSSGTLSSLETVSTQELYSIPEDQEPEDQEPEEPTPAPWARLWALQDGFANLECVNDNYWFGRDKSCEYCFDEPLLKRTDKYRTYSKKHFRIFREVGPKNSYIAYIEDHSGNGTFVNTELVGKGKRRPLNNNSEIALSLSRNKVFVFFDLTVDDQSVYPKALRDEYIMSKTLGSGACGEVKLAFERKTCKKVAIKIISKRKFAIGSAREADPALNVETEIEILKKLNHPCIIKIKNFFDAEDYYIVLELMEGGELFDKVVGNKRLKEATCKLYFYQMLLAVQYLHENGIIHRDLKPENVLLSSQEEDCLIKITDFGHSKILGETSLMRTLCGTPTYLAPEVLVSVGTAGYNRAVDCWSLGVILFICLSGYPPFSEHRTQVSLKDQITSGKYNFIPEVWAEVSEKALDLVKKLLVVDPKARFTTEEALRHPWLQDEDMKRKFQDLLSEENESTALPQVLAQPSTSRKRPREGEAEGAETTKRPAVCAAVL
Chain of SGK1 (human), O00141 [S422D] (O00141 whole entry S422D, looked up): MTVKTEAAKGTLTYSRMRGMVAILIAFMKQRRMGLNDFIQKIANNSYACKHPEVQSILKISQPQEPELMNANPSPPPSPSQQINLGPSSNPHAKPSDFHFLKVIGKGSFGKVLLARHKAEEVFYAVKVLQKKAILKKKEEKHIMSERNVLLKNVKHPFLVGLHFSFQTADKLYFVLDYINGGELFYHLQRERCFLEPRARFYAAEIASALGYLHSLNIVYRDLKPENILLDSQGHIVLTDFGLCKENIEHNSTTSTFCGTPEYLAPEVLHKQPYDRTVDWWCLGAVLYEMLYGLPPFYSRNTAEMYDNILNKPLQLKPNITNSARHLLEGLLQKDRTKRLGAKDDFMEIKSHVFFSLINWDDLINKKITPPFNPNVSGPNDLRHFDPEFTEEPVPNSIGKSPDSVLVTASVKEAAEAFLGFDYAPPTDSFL

residual activity ([1]; compound 1.0 µM): 97%
residual activity ([1]; compound 10.0 µM): 100%
residual activity ([2]; compound 1.0 µM): 108%
residual activity ([2]; compound 10.0 µM): 103%
residual activity ([3]; compound 1.0 µM): 76%
residual activity ([3]; compound 10.0 µM): 54%
residual activity ([4]; compound 10.0 µM): 94%
residual activity ([5]; compound 1.0 µM): 99%
residual activity ([5]; compound 10.0 µM): 79%
residual activity ([6]; compound 1.0 µM): 112%
residual activity ([6]; compound 10.0 µM): 99%
residual activity ([7]; compound 1.0 µM): 98%
residual activity ([7]; compound 10.0 µM): 88%
residual activity ([8]; compound 1.0 µM): 105%
residual activity ([8]; compound 10.0 µM): 101%
residual activity ([9]; compound 10.0 µM): 97%
residual activity ([10]; compound 1.0 µM): 90%
residual activity ([10]; compound 10.0 µM): 85%
residual activity ([11]; compound 1.0 µM): 63%
residual activity ([11]; compound 10.0 µM): 18%
residual activity ([12]; compound 1.0 µM): 108%
residual activity ([12]; compound 10.0 µM): 107%
residual activity ([13]; compound 1.0 µM): 102%
residual activity ([13]; compound 10.0 µM): 105%
residual activity ([14]; compound 1.0 µM): 80%
residual activity ([14]; compound 10.0 µM): 90%
residual activity ([15]; compound 1.0 µM): 104%
residual activity ([15]; compound 10.0 µM): 97%
residual activity ([16]; compound 1.0 µM): 94%
residual activity ([16]; compound 10.0 µM): 92%
residual activity ([17]; compound 1.0 µM): 113%
residual activity ([17]; compound 10.0 µM): 101%
residual activity ([18]; compound 1.0 µM): 119%
residual activity ([19]; compound 1.0 µM): 101%
residual activity ([19]; compound 10.0 µM): 96%
residual activity ([20]; compound 1.0 µM): 89%
residual activity ([20]; compound 10.0 µM): 77%
residual activity ([21]; compound 1.0 µM): 93%
residual activity ([21]; compound 10.0 µM): 90%
residual activity ([22]; compound 1.0 µM): 92%
residual activity ([22]; compound 10.0 µM): 90%
residual activity ([23]; compound 1.0 µM): 129%
residual activity ([23]; compound 10.0 µM): 122%
residual activity ([24]; compound 1.0 µM): 94%
residual activity ([24]; compound 10.0 µM): 90%
residual activity ([25]; compound 1.0 µM): 88%
residual activity ([25]; compound 10.0 µM): 44%
residual activity ([26]; compound 1.0 µM): 92%
residual activity ([26]; compound 10.0 µM): 112%
residual activity ([27]; compound 1.0 µM): 100%
residual activity ([27]; compound 10.0 µM): 106%
Structure (SMILES): O=C(O)c1cc(N=Nc2ccc(S(=O)(=O)Nc3ccccn3)cc2)ccc1O

residual activity ([1]; compound 1.0 µM): 111%
residual activity ([1]; compound 10.0 µM): 101%
residual activity ([2]; compound 1.0 µM): 92%
residual activity ([2]; compound 10.0 µM): 86%
residual activity ([3]; compound 1.0 µM): 99%
residual activity ([3]; compound 10.0 µM): 98%
residual activity ([4]; compound 1.0 µM): 81%
residual activity ([4]; compound 10.0 µM): 88%
residual activity ([5]; compound 1.0 µM): 105%
residual activity ([5]; compound 10.0 µM): 107%
residual activity ([6]; compound 1.0 µM): 83%
residual activity ([6]; compound 10.0 µM): 81%
residual activity ([7]; compound 1.0 µM): 98%
residual activity ([7]; compound 10.0 µM): 106%
residual activity ([8]; compound 1.0 µM): 97%
residual activity ([8]; compound 10.0 µM): 102%
residual activity ([9]; compound 1.0 µM): 86%
residual activity ([9]; compound 10.0 µM): 86%
residual activity ([10]; compound 1.0 µM): 97%
residual activity ([10]; compound 10.0 µM): 96%
residual activity ([11]; compound 1.0 µM): 88%
residual activity ([11]; compound 10.0 µM): 85%
residual activity ([12]; compound 1.0 µM): 110%
residual activity ([12]; compound 10.0 µM): 109%
residual activity ([13]; compound 1.0 µM): 91%
residual activity ([13]; compound 10.0 µM): 88%
residual activity ([14]; compound 1.0 µM): 83%
residual activity ([14]; compound 10.0 µM): 99%
residual activity ([15]; compound 1.0 µM): 109%
residual activity ([15]; compound 10.0 µM): 99%
residual activity ([16]; compound 1.0 µM): 94%
residual activity ([16]; compound 10.0 µM): 104%
residual activity ([17]; compound 1.0 µM): 88%
residual activity ([17]; compound 10.0 µM): 89%
residual activity ([18]; compound 1.0 µM): 102%
residual activity ([18]; compound 10.0 µM): 96%
residual activity ([19]; compound 1.0 µM): 110%
residual activity ([19]; compound 10.0 µM): 89%
residual activity ([20]; compound 1.0 µM): 90%
residual activity ([20]; compound 10.0 µM): 82%
residual activity ([21]; compound 1.0 µM): 96%
residual activity ([21]; compound 10.0 µM): 97%
residual activity ([22]; compound 1.0 µM): 88%
residual activity ([22]; compound 10.0 µM): 87%
residual activity ([23]; compound 1.0 µM): 80%
residual activity ([23]; compound 10.0 µM): 92%
residual activity ([24]; compound 1.0 µM): 91%
residual activity ([24]; compound 10.0 µM): 90%
residual activity ([25]; compound 1.0 µM): 87%
residual activity ([25]; compound 10.0 µM): 94%
residual activity ([26]; compound 1.0 µM): 90%
residual activity ([26]; compound 10.0 µM): 86%
residual activity ([27]; compound 1.0 µM): 85%
residual activity ([27]; compound 10.0 µM): 96%
Structure (SMILES): CN1C(=O)[C@@H](Cc2c[nH]c3ccccc23)NC1=S
